# Reference: patent US7163700B2, “Amorphous drug beads” (Capricorn Pharma, Inc., priority 2001, dated 2007)
# Experiment: Dissolution test of amorphous Itraconazole drug beads versus crystalline Itraconazole (FIG. 1)
# Type: physicochemical
# Settings: over the same time period
# Excerpt: Quantities of Itraconazole and Pluronic™ F68 in a ratio of 9 parts Itraconazole to 1 part Pluronic™ F68 were melted separately in an oil bath. Once both components were completely melted, they were combined, emulsified with high shear, and poured onto a cold plate to cool rapidly.
smiles,measurement,value
"CCC(C)n1ncn(-c2ccc(N3CCN(c4ccc(OCC5COC(Cn6cncn6)(c6ccc(Cl)cc6Cl)O5)cc4)CC3)cc2)c1=O (stereo not shown) [crystalline Itraconazole, 4-[4-[4-[4-[[2-(2,4-Dichlorophenyl)-2-(1H-1,2,4-triazol-1-ylmethyl)-1,3-dioxolan-4-yl]methoxy]phenyl]-1-piperazinyl]phenyl]-2,4-dihydro-2-(1-methylpropyl)-3H-1,2,4-triazol-3-one]",dissolution rate (percent dissolution versus time),20%
